Results: paper PMC9640990 (Frontiers in Pharmacology, 2022)
Blank lines part the entries; values can stand above or below the compound they belong to.

What was measured:
[1] = 1990, cited from earlier work
[2] = rats; approximately
hOAT3 = hOAT3 (Homo sapiens, UniProt Q8TCC7); assay: Inhibition of hOAT3-mediated uptake of 3H-ES in hOAT3-MDCK cells; assay type: cell-based; conditions: hOAT3-MDCK cells
Text: (§1) Considering the relative exposure characteristics, GA and PCA were selected as PK-marker and Q-marker components of PCE in previous studies ([Ma et al., 2015]; [Ma et al., 2016]; [Li et al., 2021b]). In this study, we investigated the concentration-dependent inhibitions of GA and PCA on multiple transporters, including OAT1, OAT3, OCT2, MDR1, and BCRP. Stably expressing cell lines of hOAT1-MDCK, hOAT3-MDCK, hOCT2-S2, hMDR1-MDCK, hBCRP-MDCK, and their mock cells were obtained from Japan Fuji Biomedical Co., Ltd. The cells were maintained in DMEM (Sigma) supplemented with 10% FCS, 1% non-essential amino acids (Sigma), and 2% L-glutamine. The medium for the Transwell® plates (Corning Costar, Cambridge, MA, United States) was supplemented with 0.1% gentamicin. Membrane filters were placed in a 12 mm well with 1.5 and 0.5 ml of culture medium in the basolateral and apical compartments, respectively. Cells were cultured at 37°C in an atmosphere of 5% CO2. The inhibition experiments were adapted from previous methods with minor modifications ([Li et al., 2021a]; [2021b]).
Briefly, the hOAT1-MDCK, hOAT3-MDCK, and hOCT2-S2 cells were trypsinized and suspended in the culture medium to provide a density of 1.5 × 10^5 cells/ml. After incubating for 48 h, the cells were washed twice with preheated DPBS and then pre-incubated with DPBS for 10 min at 37°C. 500 µl of DPBS containing probe substrates was added to initiate the uptake in the presence or absence of GA, PCA or positive inhibitors. The hMDR1-MDCK and hBCRP-MDCK cells were suspended at a density of 4.0 × 10^5 cells/ml. After cultivation for 7 days, cells were washed twice and equilibrated for 30 min at 37°C with the pre-warmed HBSS buffer. […] The radioactive intensity of ^14C-PAH, ^3H-ES, and ^14C-TEA was measured using a Tri-Carb 2910TR scintillator (PerkinElmer, United States). Fluorescence was measured at 485 nm (excitation) and 546 nm (emission) for rhodamine 123, and 425 nm (excitation) and 528 nm (emission) for lucifer yellow. IC50 values were determined by employing GraphPad Prism 9.

BCRP mRNA = BCRP mRNA expression in Caco-2 cells (qRT-PCR); assay type: cell-based; conditions: 48 h pretreatment, bosentan 20 μM, GA 50 μM, PCA 50 μM, PCE 100 mg/ml
MDR1 mRNA = MDR1 mRNA expression in Caco-2 cells (qRT-PCR); assay type: cell-based; conditions: 48 h pretreatment, bosentan 20 μM, GA 50 μM, PCA 50 μM, PCE 100 mg/ml
hOCT2 = target: T1, hOCT2 (Homo sapiens, UniProt O15244); assay: Inhibition of hOCT2-mediated uptake of 14C-TEA in hOCT2-S2 cells; assay type: cell-based
T1 construct: host or cells: S2
T1 sequence (O15244 1-555): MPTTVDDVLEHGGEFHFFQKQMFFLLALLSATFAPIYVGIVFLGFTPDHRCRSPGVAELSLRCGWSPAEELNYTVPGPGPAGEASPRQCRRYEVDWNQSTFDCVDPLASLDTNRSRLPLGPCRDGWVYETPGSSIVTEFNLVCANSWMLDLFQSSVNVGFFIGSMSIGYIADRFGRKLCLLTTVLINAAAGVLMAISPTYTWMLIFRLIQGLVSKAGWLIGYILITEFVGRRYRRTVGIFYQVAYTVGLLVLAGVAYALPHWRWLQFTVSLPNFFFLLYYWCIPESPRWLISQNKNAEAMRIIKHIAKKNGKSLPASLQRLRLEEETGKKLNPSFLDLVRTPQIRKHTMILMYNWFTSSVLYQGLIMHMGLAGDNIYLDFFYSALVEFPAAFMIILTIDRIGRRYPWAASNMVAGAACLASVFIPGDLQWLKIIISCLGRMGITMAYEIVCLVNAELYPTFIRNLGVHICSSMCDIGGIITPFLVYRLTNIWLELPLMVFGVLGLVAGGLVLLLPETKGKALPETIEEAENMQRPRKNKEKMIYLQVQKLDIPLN
Text: as §1, with “Membrane filters were placed in a 12 mm well with 1.5 and 0.5 ml of culture medium in the basolateral and apical compartments, respectively. Cells were cultured at 37°C in an atmosphere of 5% CO2. The inhibition experiments were adapted from previous methods with minor modifications ([Li et al., 2021a]; [2021b]).” left out
Briefly, the hOAT1-MDCK, hOAT3-MDCK, and hOCT2-S2 cells were trypsinized and suspended in the culture medium to provide a density of 1.5 × 10^5 cells/ml. […] The radioactive intensity of ^14C-PAH, ^3H-ES, and ^14C-TEA was measured using a Tri-Carb 2910TR scintillator (PerkinElmer, United States). Fluorescence was measured at 485 nm (excitation) and 546 nm (emission) for rhodamine 123, and 425 nm (excitation) and 528 nm (emission) for lucifer yellow. IC50 values were determined by employing GraphPad Prism 9.

hOAT3, sequence (Q8TCC7 whole entry): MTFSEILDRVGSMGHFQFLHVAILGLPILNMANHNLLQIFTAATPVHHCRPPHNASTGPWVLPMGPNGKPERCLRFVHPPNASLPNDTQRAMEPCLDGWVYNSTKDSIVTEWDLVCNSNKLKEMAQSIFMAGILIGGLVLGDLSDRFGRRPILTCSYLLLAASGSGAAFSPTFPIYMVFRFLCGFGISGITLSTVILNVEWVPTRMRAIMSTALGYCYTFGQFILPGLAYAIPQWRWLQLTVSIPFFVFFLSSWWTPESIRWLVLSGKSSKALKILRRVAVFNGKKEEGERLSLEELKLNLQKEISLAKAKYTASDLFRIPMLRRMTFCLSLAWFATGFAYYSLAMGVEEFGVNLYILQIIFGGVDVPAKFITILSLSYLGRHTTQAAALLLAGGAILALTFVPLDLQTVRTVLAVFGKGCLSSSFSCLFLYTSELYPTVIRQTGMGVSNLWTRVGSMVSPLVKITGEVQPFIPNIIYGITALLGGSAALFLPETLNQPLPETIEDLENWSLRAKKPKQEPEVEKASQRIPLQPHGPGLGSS

reduction of circulating CIP by concurrent use of PCE [2]: 40%–50%
SMILES: O=C(O)c1cn(C2CC2)c2cc(N3CCNCC3)c(F)cc2c1=O [CIP, ciprofloxacin]
share of an intravenous dose eliminated into the intestine ([1]; ref Rohwedder et al., Haslam et al., 2011): Approximately 20% | excreted in unchanged form into the urine ([1]; ref Vance-Bryan et al.): Approximately 60%

effect of positive inhibitor on hOAT3 (hOAT3): Significant inhibitory effects
SMILES: CN/C(=N/CCSCc1nc[nH]c1C)NC#N [cimetidine]

SMILES: COc1ccccc1Oc1c(NS(=O)(=O)c2ccc(C(C)(C)C)cc2)nc(-c2ncccn2)nc1OCCO [bosentan, Bosentan]
increase of BCRP mRNA expression (BCRP mRNA): 4.31 fold | increase of MDR1 (P-gp) mRNA expression (MDR1 mRNA): 7.36 fold

effect of positive inhibitor on hOCT2 (hOCT2): Significant inhibitory effects
SMILES: CO[C@H]1/C=C/O[C@@]2(C)Oc3c(C)c(O)c4c(O)c(c(/C=N/N5CCN(C)CC5)c(O)c4c3C2=O)NC(=O)/C(C)=C\C=C\[C@H](C)[C@H](O)[C@@H](C)[C@@H](O)[C@@H](C)[C@H](OC(C)=O)[C@@H]1C [rifampicin]
